According to publication PMC7395850 (Biochemical and biophysical research communications, 2019):

What was measured:
Assay type in all cases: biochemical
N-phos in mouse sEH = biological target: T1, N-phos in mouse sEH (Mus musculus, UniProt P34914); experiment: N-phos activity assay with AttoPhos substrate, mouse sEH; conditions: for inhibition of mouse N-phos: inhibitor at 6 μM; for species preference of N-phos inhibition (mouse versus human), in words: mouse at 6 μM versus human at 30 μM (Figure 1D); for inhibition of mouse N-phos, in words: screening, 6 μM; for selectivity index (N-phos over C-EH) in mouse sEH: IC50 C-EH / IC50 N-phos; for Ki: read-out: KI for mouse N-phos, competitive with respect to AttoPhos; for inhibition mechanism, mouse N-phos: with respect to the substrate AttoPhos
T1 sequence (P34914 1-554): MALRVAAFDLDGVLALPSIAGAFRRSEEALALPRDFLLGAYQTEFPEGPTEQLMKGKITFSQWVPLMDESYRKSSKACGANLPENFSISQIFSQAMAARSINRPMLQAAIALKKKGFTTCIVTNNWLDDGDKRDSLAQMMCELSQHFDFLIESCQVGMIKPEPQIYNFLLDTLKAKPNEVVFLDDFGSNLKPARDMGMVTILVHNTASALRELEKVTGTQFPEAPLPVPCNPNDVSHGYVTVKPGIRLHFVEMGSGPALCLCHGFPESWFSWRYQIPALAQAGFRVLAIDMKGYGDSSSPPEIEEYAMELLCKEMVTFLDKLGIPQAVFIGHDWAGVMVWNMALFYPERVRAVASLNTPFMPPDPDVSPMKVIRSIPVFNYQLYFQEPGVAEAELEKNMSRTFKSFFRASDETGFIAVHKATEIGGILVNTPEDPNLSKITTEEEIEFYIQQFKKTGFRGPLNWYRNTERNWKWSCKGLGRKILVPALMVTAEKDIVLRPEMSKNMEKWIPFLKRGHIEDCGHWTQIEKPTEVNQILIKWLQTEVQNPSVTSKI

N-phos in human sEH = biological target: T2, N-phos in human sEH (Homo sapiens, UniProt P34913); experiment: N-phos activity assay with AttoPhos substrate, human sEH; conditions: for inhibition of human N-phos: inhibitor at 30 μM; for inhibition of human N-phos, in words: screening, 30 μM; for selectivity index (N-phos over C-EH) in human sEH: IC50 C-EH / IC50 N-phos; for Ki: read-out: KI for human N-phos, competitive with respect to AttoPhos; for inhibition mechanism, human N-phos: with respect to the substrate AttoPhos; for species preference of N-phos inhibition (human versus mouse), in words: human at 30 μM versus mouse at 6 μM (Figure 1B)
T2 sequence (P34913 1-555): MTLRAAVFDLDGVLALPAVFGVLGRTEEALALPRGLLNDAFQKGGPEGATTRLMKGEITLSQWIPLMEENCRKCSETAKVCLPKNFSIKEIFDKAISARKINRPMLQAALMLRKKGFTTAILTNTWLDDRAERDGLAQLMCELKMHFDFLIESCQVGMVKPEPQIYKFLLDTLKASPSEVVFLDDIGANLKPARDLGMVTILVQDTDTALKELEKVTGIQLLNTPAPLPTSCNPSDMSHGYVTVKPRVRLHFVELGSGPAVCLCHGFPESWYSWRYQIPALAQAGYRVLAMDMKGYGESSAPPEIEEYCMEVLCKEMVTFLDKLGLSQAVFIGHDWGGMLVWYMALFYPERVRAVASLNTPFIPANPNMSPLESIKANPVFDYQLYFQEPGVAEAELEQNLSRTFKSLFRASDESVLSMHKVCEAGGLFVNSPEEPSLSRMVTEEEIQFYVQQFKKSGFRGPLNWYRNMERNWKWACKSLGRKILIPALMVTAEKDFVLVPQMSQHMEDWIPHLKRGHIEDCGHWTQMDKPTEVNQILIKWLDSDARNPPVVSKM

C-EH in human sEH = biological target: T3, C-EH in human sEH (Homo sapiens, UniProt P34913); experiment: C-EH activity assay with PHOME substrate, human sEH; conditions: for time-dependent change in C-EH inhibition, human sEH: preincubation 1.7, 10, 30 and 120 min; for IC50: read-out: IC50 for C-EH in human sEH, human sEH, PHOME substrate
T3 sequence (P34913 1-555): T2 sequence (P34913 1-555)

C-EH in mouse sEH = biological target: T4, C-EH in mouse sEH (Mus musculus, UniProt P34914); experiment: C-EH activity assay with PHOME substrate, mouse sEH; conditions: for time-dependent change in C-EH inhibition, mouse sEH: preincubation time-window 1.7−120 min; for IC50: read-out: IC50 for C-EH in mouse sEH, mouse sEH, PHOME substrate
T4 sequence (P34914 1-554): T1 sequence (P34914 1-554)

Row | SMILES | inhibition of mouse N-phos (N-phos in mouse sEH) [%] | inhibition of mouse N-phos, in words (N-phos in mouse sEH) | inhibition of human N-phos (N-phos in human sEH) [%] | inhibition of human N-phos, in words (N-phos in human sEH) | IC50 (C-EH in human sEH) [µM] | IC50 (C-EH in mouse sEH) [µM] | Ki (N-phos in mouse sEH) [µM] | inhibition mechanism, mouse N-phos (N-phos in mouse sEH) | Ki (N-phos in human sEH) [µM] | inhibition mechanism, human N-phos (N-phos in human sEH) | selectivity index (N-phos over C-EH) in human sEH (N-phos in human sEH) | also measured
1 | O=C(N[C@@H](Cc1c[nH]c2ccccc12)C(=O)O)OCC1c2ccccc2-c2ccccc21 [Compound 78, Fmoc-L-Trp] | > 75 | inhibitory | – | inhibitory | – | ~200 | – | – | – | – | – | selectivity index (N-phos over C-EH) in mouse sEH (N-phos in mouse sEH): ~ 50; time-dependent change in C-EH inhibition, mouse sEH (C-EH in mouse sEH): did not display any time-dependent change
2 | N#Cc1ccc(C[C@H](NC(=O)OCC2c3ccccc3-c3ccccc32)C(=O)O)cc1 [Compound 67, Fmoc-L-Phe(4-CN)] | > 75 | – | – | – | – | 85 | 1.1 | competitively | 26 | competitively | – | selectivity index (N-phos over C-EH) in mouse sEH (N-phos in mouse sEH): 37; species preference of N-phos inhibition (mouse versus human), in words (N-phos in mouse sEH): more potent on inhibiting the mouse N-phos than the human enzyme; preference for mouse N-phos over human N-phos (N-phos in mouse sEH; ratio of KI values): 24 fold; time-dependent change in C-EH inhibition, mouse sEH (C-EH in mouse sEH): did not display any time-dependent change
3 | CC(C)(C)OC(=O)n1cc(C[C@H](NC(=O)OCC2c3ccccc3-c3ccccc32)C(=O)O)c2ccccc21 [Compound 95, Fmoc-L-Trp(Boc)] | > 75 | inhibitory | > 72 | inhibitory | – | – | – | – | – | – | – | –
4 | CC(=O)N[C@@H](CSC/C=C(\C)CC/C=C(\C)CCC=C(C)C)C(=O)O [AFC, N-Acetyl-S-farnesyl-L-cysteine, reference compound] | – | – | – | – | > 100 | 48 | 33 | competitively | 1.1 | competitively | > 29 | –

The next lines start with results.

Row | inhibition of mouse N-phos (N-phos in mouse sEH) [%] | inhibition of mouse N-phos, in words (N-phos in mouse sEH) | inhibition of human N-phos (N-phos in human sEH) [%] | inhibition of human N-phos, in words (N-phos in human sEH) | IC50 (C-EH in human sEH) [µM] | IC50 (C-EH in mouse sEH) [µM] | Ki (N-phos in mouse sEH) [µM] | inhibition mechanism, mouse N-phos (N-phos in mouse sEH) | Ki (N-phos in human sEH) [µM] | inhibition mechanism, human N-phos (N-phos in human sEH) | SMILES | selectivity index (N-phos over C-EH) in human sEH (N-phos in human sEH) | also measured
5 | > 75 | – | – | – | – | – | – | – | – | – | O=C(N[C@@H](Cc1ccccc1Cl)C(=O)O)OCC1c2ccccc2-c2ccccc21 [Compound 73, Fmoc-L-Phe(2-Cl)] | – | species preference of N-phos inhibition (mouse versus human), in words (N-phos in mouse sEH): more potent on inhibiting the mouse N-phos than the human enzyme
6 | > 75 | inhibitory | > 72 | inhibitory | – | – | – | – | – | – | CC(C)(C)OC(=O)n1cc(C[C@@H](NC(=O)OCC2c3ccccc3-c3ccccc32)C(=O)O)c2ccccc21 [Compound 96, Fmoc-D-Trp(Boc)] | – | –
7 | – | – | > 72 | – | > 200 | – | – | – | – | – | COc1ccc(C[C@@H](NC(=O)OCC2c3ccccc3-c3ccccc32)C(=O)O)cc1 [Compound 72, Fmoc-D-Tyr(Me)] | > 31 | time-dependent change in C-EH inhibition, human sEH (C-EH in human sEH): no time-dependent change
8 | – | – | > 72 | – | – | – | – | – | – | – | CC(C)(C)OC(=O)N[C@H](Cc1ccc(OC(=O)OCc2ccccc2Br)cc1)C(=O)O [Compound 30, Boc-D-Tyr(2-Br-Z)] | – | species preference of N-phos inhibition (human versus mouse), in words (N-phos in human sEH): more potent on inhibiting the human N-phos than the mouse enzyme
9 | – | – | > 72 | – | 190 | – | 9 | competitively | 0.89 | competitively | CC(C)(C)OC(=O)N[C@@H](Cc1ccc(OCc2ccccc2)cc1)C(=O)O [Compound 23, Boc-L-Tyr(Bzl)] | 127 | species preference of N-phos inhibition (human versus mouse), in words (N-phos in human sEH): more potent on inhibiting the human N-phos than the mouse enzyme; preference for human N-phos over mouse N-phos (N-phos in human sEH; ratio of KI values): 10 fold; time-dependent change in C-EH inhibition, human sEH (C-EH in human sEH): no time-dependent change
